Reference: patent publication US4036984A, “Soil fungi inhibiting agent” (Nissan Chemical Industries, Ltd., priority 1974, dated 1977)

Key:
[1] = test system: Fusarium oxysporum f. cucumerinum; test: Test 1: control of Fusarium wilt of cucumber (powder, pot test); format: in vivo; conditions: soil treatment 500 mg (5% powder) and additional irrigation 500 ppm, fourth week of transplanting
Experimental: Test of effect of fungicide on control of Fusarium wilt of cucumber (in case of using powder) Fusarium oxysporum f. cucumerinum which had been cultivated for 1 month at 25° C. on soil-bran medium was air-dried overnight and sifted through a 3mm-mesh sieve. 10g of said culture soil was blended with 600g of sterilized diluvial soil. To 200g of this blended soil were added 1200g of sterilized diluvial soil (containing 2.65 weight % of compost) and 1000mg or 500mg of 5% powder of the invented compound; and these were uniformly mixed in a vat. Next, 1500g of sterilized diluvial soil (containing compost) was placed in a wagner pot of 1/5000 are over which was spread the soil prepared above. Cucumber seedlings of one-leaf stage (variety: "Shimoshirazujibai") which had been cultivated separately in styrol cups in a greenhouse were transplanted into said wagner pot. Each of said cucumber seedlings was singly planted in 200g of the soil placed in said styrol cup and three days before its transplanting, 20 ml of an emulsion of each compound in 300 ppm concentration was irrigated over the soil. In the case of a pot whose soil had been treated with 1000 mg of the compound (5% powder), 14 days after transplanting, 50 ml of an emulsion of the compound in 1000 ppm concentration was additionally irrigated (Test I) and in the case of a pot whose soil had been treated with 500mg of the compound (5% powder), 50 ml of an emulsion of the compound in 500 ppm concentration was additionally irrigated (Test II). The pots were all kept in a greenhouse, and the test was carried out on lots each containing three pots, each pot holding four seedlings.
Every 2 days the withered seedlings were counted and in the fourth week of transplanting, the browning degree of vascular in each seedling was measured; and the effectiveness rating was determined as follows; [formula] (Note)* Fusarium lot is a treated lot containing only Fusarium oxysporum f. cucumerinum.
Sick score is obtained as follows:
Sick score = 3 × a + 2 × b + 1 × c + 0.5 × d + 0 […]
a -- number of withered seedlings b -- number of seedlings in which the browning of vascular has reached the cotyledon part c -- number of seedlings in which the browning of vascular is short of the cotyledon part d -- number of seedlings in which only brown spots have been recognized e -- number of perfectly sound seedlings a + b + c + d + e = 12

[2] = test system: Fusarium oxysporum f. cucumerinum; test: Fungicidal test by agar dilution method (colony diameter); format: cell-based; conditions: 2.5, 5 and 10 ppm
[3] = test system: Fusarium oxysporum f. cucumerinum; test: as above; format: cell-based; conditions: for diameter of the colony: 4 days, 25° C., PSA medium; for growth / inhibition of colony compared with the control: 250-1000 ppm
Experimental: Reference -- Fungicidal Test by Agar Dilution Method
100 mg of the invented compound was taken in a 30 ml conical flask, to which a drop of 1:1 mixture of Solpol 2680 (surface-active agent produced by Toho Kagaku) and xylene (about 25 mg), and 1 ml of acetone were added to dissolve therein. On the other hand, 9 ml of sterilized water separately was further added to emulsify, thereby yielding an emulsion of 10,000 ppm concentration. From this emulsion an emulsion of 5,000 ppm and one of 2,500 ppm were prepared through two times dilution.
In a 100 ml conical flask, 3 ml portion each of these emulsions was taken; 27 ml of potato-sucrose-agar (PSA) medium, at 50°-60° C. was added and uniformly blended. Ten ml of the obtained mixture was poured and hardened on a 10 cm-diameter petri dish.
Meanwhile, a colony of Fusarium oxysporum f. cucumerinum separately cultivated on potato-sucrose-agar (PSA) medium was stamped out by a 4mm-diameter cork-borer and inoculated on the above-mentioned mixed medium. After 4 days of cultivation in a chamber of 25° C., the diameter of the colony was measured, the results being summarized in Table 2. A case of the colony not having grown is indicated by the sign (-).

[4] = test system: Fusarium oxysporum f. cucumerinum; test: Test 6: control of Fusarium wilt of cucumber by spraying stalks and leaves; format: in vivo; conditions: stalks and leaves sprayed with 2000 ppm, third week of transplanting
Experimental: Test of effect of fungicide on control of Fusarium wilt of cucumber, by spraying stalks and leaves with compound.
Fusarium oxysporum f. cucumerinum which had been cultivated for 1 month at 25° C. on soil-bran medium was air-dried overnight and then sifted through a 3mm-mesh sieve.
Next, 1500 g of sterilized diluvial soil (containing compost) was placed in a Wagner pot of 1/5000a, over which the soil prepared above was spread. Cucumber seedlings of one-leaf stage (variety: "Shimoshiraznjibai") which had been separately grown in styrol cups in a greenhouse were transplanted into said Wagner pot. Each of said cucumber seedlings was singly grown in a styrol cup with 200 g of soil. Seven days before it was transplanted, it was sprayed with a 2000 ppm solution of each compound until the stalks and leaves were completely wet.
Just after transplanting and at the end of each week after transplanting, the seedling was sprinkled until completely wet with a 2000 ppm solution of the compound. All the pots were kept in the greenhouse. The test was carried out on lots of three pots each with each pot holding four seedlings.
In the third week of transplanting all the seedlings were checked for the browning of vascular and in the same way as in Test 1.

[5] = test system: rats; conditions: cited from earlier work
[6] = in vivo; cited from earlier work
[7] = test system: pests like fleas, mosquitoes etc.; conditions: cited from earlier work
[8] = test system: genus Bacillus; conditions: 2000 ppm; cited from earlier work
[9] = test system: Escherichia coli; conditions: 2000 ppm; cited from earlier work
[10] = test system: Micrococcus pyogenes var. aureus; conditions: 2000 ppm; cited from earlier work
[11] = test system: Fusarium oxysporum f. cucumerinum; test: Test 2: control of Fusarium wilt of cucumber (emulsion, pot test); format: in vivo; conditions: emulsion irrigated 300 ppm, then 1000 ppm twice, third week of transplanting
Experimental: Test of effect of fungicide on control of Fusarium wilt of cucumber (in case of using emulsion).
Fusarium oxysporum f. cucumerinum which had been cultivated for 1 month at 25° C. on soil-bran medium was air-dried overnight and then sifted through a 3 mm-mesh sieve. 15g of said culture soil and 600g of sterilized diluvial soil were blended together.
Next, 1500g of sterilized diluvial soil (containing compost) was placed in a Wagner pot of 1/5000 are, over which the soil prepared above was spread. Cucumber seedlings of one-leaf stage (variety: "Shimoshirazujibai") which had been separately cultivated in styrol cups in a greenhouse were transplanted into said Wagner pot. Each of said cucumber seedlings was singly grown in a styrol cup with 200g of soil. Seven days before it was transplanted, 20 ml of an emulsion of each compound in 300 ppm was irrigated over the soil. Just after transplanting and two weeks after transplanting 50 ml of an emulsion of the compound in 1000 ppm was additionally irrigated. All pots were kept in the greenhouse, the test being carried out on lots each containing three pots and each pot holding four seedlings.
In the third week of transplanting all the seedlings were checked for the browning degree of vascular and in the same way as in Test 1, the effectiveness rating and the sick score were determined.

Compound	diameter of the colony ([3]; 250 ppm)	diameter of the colony ([3]; 500 ppm)	diameter of the colony ([3]; 1000 ppm)	further results
CCCCNC(=O)n1c(NC(=O)OC)nc2ccccc21 [Benomyl, methyl-1-(butylcarbamonyl)-2-benzimidazolcarbamate, reference compound]	–	–	–	Effectiveness Rating II [1]: 44; growth of the colony [2]: no growth of the colony was evident
O=COCCOc1ccccc1 [Compound No. 1]	40 mm	30 mm	10 mm	–
CC(=O)OCCOc1ccccc1 [Compound No. 2]	37 mm	26 mm	–	Effectiveness Rating II [1]: 80; Effectiveness Rating, 2000 ppm [4]: 67; LD50, acute oral toxicity [5]: 4900 mg/kg; skin cancer [6]: not likely to cause skin cancer; repellency [7]: feebly repellant
CCC(=O)OCCOc1ccccc1 [Compound No. 3]	25 mm	20 mm	9 mm	Effectiveness Rating II [1]: 32
CCCC(=O)OCCOc1ccccc1 [Compound No. 4]	32 mm	27 mm	22 mm	Effectiveness Rating II [1]: 30
CC(C)C(=O)OCCOc1ccccc1 [Compound No. 5]	30 mm	23 mm	17 mm	bactericidal effect [8]: non-bactericidal; bactericidal effect [9]: non-bactericidal; bactericidal effect [10]: non-bactericidal
CCCCC(=O)OCCOc1ccccc1 [Compound No. 6]	31 mm	26 mm	22 mm	–
CCC(C)C(=O)OCCOc1ccccc1 (stereo not shown) [Compound No. 7]	25 mm	23 mm	16 mm	–
CC(C)CC(=O)OCCOc1ccccc1 [Compound No. 8]	24 mm	19 mm	15 mm	Effectiveness Rating II [1]: 50
C=CC(=O)OCCOc1ccccc1 [Compound No. 23, β-phenoxyethylacrylate]	–	–	–	Effectiveness Rating, 2000 ppm [4]: 30
CC(C)C(=O)C(=O)OCCOc1ccccc1 [Compound No. 45, β-phenoxyethyl 2-oxo-3-methyl-butanoate]	–	–	–	Effectiveness Rating, 2000 ppm [4]: 76
CSCC(=O)OCCOc1ccccc1 [Compound No. 67, β-phenoxyethyl S-methylglycolate]	–	–	–	Effectiveness Rating [11]: 89
CCCCCC(=O)OCCOc1ccccc1 [compound 9]	33 mm	30 mm	22 mm	–
CCCCCCC(=O)OCCOc1ccccc1 [compound 10]	33 mm	28 mm	24 mm	–
CCCCCCCC(=O)OCCOc1ccccc1 [compound 11]	36 mm	32 mm	29 mm	–
CCCCCCCCCC(=O)OCCOc1ccccc1 [compound 12]	46 mm	41 mm	38 mm	growth / inhibition of colony compared with the control [3]: same growth as the control
CCCCCCCCCCCC(=O)OCCOc1ccccc1 [compound 13]	49 mm	45 mm	40 mm	growth / inhibition of colony compared with the control [3]: same growth as the control
CC(CC(=O)OCCOc1ccccc1)CC(C)(C)C (stereo not shown) [compound 14]	38 mm	38 mm	35 mm	–
CC(C)(C)C(=O)OCCOc1ccccc1 [compound 15]	19 mm	17 mm	13 mm	–
CC(C)(O)CC(=O)OCCOc1ccccc1 [compound 37]	–	–	–	Effectiveness Rating, 2000 ppm [4]: 40
CC(C)=CC(=O)OCCSc1ccccc1 [compound 74]	–	–	–	Effectiveness Rating, 2000 ppm [4]: 62
